Each structure is given as a SMILES string. Converted amounts (≈) assume the structure as drawn.

In the first test the target is T1, Human Polymorphonuclear Leukocyte Elastase (Homo sapiens, UniProt P08246).
T1 sequence (P08246 30-247 limits assumed): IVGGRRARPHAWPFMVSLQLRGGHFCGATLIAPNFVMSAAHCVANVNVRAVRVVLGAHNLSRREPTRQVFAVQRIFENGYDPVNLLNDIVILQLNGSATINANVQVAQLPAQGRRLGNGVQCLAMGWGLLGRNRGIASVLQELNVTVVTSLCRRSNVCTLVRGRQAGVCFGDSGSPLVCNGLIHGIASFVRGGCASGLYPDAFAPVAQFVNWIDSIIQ
Kind of test: biochemical.
Conditions: not given
The procedure: Protocol--Enzyme Assays for the Inhibition of Human Polymorphonuclear Leukocyte Elastase Via Hydrolysis of N-t-Boc-alanyl-alanyl-prolylalanine-p-nitroanilide Reagents:
0.05M TES (N-tris[hydroxymethyl]methyl-2-amino-ethanesulfonic acid) Buffer, pH 7.5.
0.2 mMN-t-Boc-alanyl -alanyl -prolyl-alanine-p-nitroanilide (Boc-AAPAN).
To prepare substrate, the solid (m.w. 550) was first dissolved in 10.0 ml DMSO. Buffer at pH 7.5 was then added to a final volume of 100 ml.
Crude extract of human polymorphonuclear leukocytes (PMN) containing elastase activity.
Inhibitors (cephalosporin sulfone esters) to be tested dissolved in DMSO just before use.
To 1.0 ml of 0.2 mM Boc-AAPAN in a cuvette, 0.01-0.1 ml of DMSO with or without inhibitor was added. After mixing, a measurement was taken at 410 mμ to detect any spontaneous hydrolysis due to presence of test compound. 0.05 Milliliters of PMN extract was then added and the ΔOD/min at 410 mμ was measured and recorded. Beckman model 35 spectrophotometer was used.
The elastase activity in the crude PMN extract may vary from one preparation to another. A control of each new batch is run, and the volume added in the assay procedure is adjusted according to activity.
In turn, `CO[C@H]1C(=O)N2C(C(=O)OC(C)(C)C)=C(CS(=O)(=O)c3ccccc3)CS(=O)(=O)C12` (single isomer, unassigned) [R1=OCH3, M=CH2SO2.phi., B=OtBu, Q=H, t-Butyl 3-phenylsulfonylmethyl-7α-methoxy-8-oxo-5-thia-1-azabicyclo[4.2.0]oct-2-ene-2-carboxylate-5,5-dioxide] gave an IC50 of 437 nM. The same measure, in the same setting: as for `CO[C@H]1C(=O)N2C(C(=O)OC(C)(C)C)=C(C[S+]([O-])c3ccccc3)CS(=O)(=O)C12` (single isomer, unassigned) [R1=OCH3, M=CH2SO.phi., B=OtBu, Q=H, t-Butyl 3-phenylsulfinylmethyl-7α-methoxy-8-oxo-5-thia-1-azabicyclo[4.2.0]oct-2-ene-2-carboxylate-5,5-dioxide], the figure is 181 nM. The same measure, in the same setting: then `CC(=O)OCC1=C(C(=O)OC(C)(C)C)N2C(=O)[C@H](Cl)[C@H]2S(=O)(=O)C1` [R1=Cl, M=CH2OCOCH3, B=OtBu, Q=H, t-Butyl 3-acetyloxymethyl-7α-chloro-8-oxo-5-thia-1-azabicyclo[4.2.0]oct-2-ene-2-carboxylate-5.5-dioxide], with 52.7 nM; and `CC(=O)OCC1=C(C(=O)OC(C)(C)C)N2C(=O)[C@H](F)[C@H]2S(=O)(=O)C1` [R1=F, M=CH2OCOCH3, B=OtBu, Q=H, t-Butyl 3-acetyloxymethyl-7α-fluoro-8-oxo-5-thia-1-azabicyclo[4.2.0]oct-2-ene-2-carboxylate-5,5-dioxide], with 82.6 nM.

The molecule `CC(=O)OCC1=C(C(=O)OC(C)(C)C)N2C(=O)C(Oc3ccccc3)C2S(=O)(=O)C1` (stereo not drawn) [R1=OC6H5, M=CH2OCOCH3, B=OtBu, Q=H] gave an IC50 of 1830 nM. Same read-out and setting: as for `COCC1=C(C(=O)OC(C)(C)C)N2C(=O)[C@H](OC)C2S(=O)(=O)C1` (stereo partly drawn) [R1=OCH3, M=CH2OCH3, B=OtBu, Q=H], the figure is 864 nM. The same measure, in the same setting: then `CO[C@H]1C(=O)N2C(C(=O)OCc3ccccc3)=C(COC(C)=O)CS(=O)(=O)[C@H]12` [R1=OCH3, M=CH2OCOCH3, B=OCH2.phi., Q=H, Benzyl 3-acetyloxymethyl-7α-methoxy-8-oxo-5-thia-1-azabicyclo[4.2.0]oct-2-ene-2-carboxylate-5,5-dioxide], with 73.3 nM; and `COC(=O)C1=C(COC(C)=O)CS(=O)(=O)C2C(OC)C(=O)N12` (stereo not drawn) [R1=OCH3, M=CH2OCOCH3, B=OCH3, Q=H], with 240 nM.

The test is the same for the next values; noted with them: Table II; 50% inhibition of the enzyme activity 2 minutes after zero time; crude PMN extract, pH 7.5, 0.2 mM Boc-AAPAN.
For the molecule `CO[C@H]1C(=O)N2C(C(=O)OC(C)(C)C)=C(CCl)CS(=O)(=O)C12` (stereo partly drawn) [R1=OCH3, M=CH2Cl, B=OtBu, Q=H, t-Butyl 3-chloromethyl-7α-methoxy-8-oxo-5-thia-1-azabicyclo[4.2.0]oct-2-ene-2-carboxylate-5,5-dioxide], the ED50 is 0.15 µg/mL (≈ 0.426 µM).

For `CO[C@H]1C(=O)N2C(C(=O)OC(C)(C)C)=C(CSc3ccccc3)CS(=O)(=O)C12` (stereo partly drawn) [R1=OCH3, M=CH2S.phi., B=OtBu, Q=H, t-Butyl 3-phenylthiomethyl-7α-methoxy-8-oxo-5-thia-1-azabicyclo[4.2.0]oct-2-ene-2-carboxylate-5,5-dioxide], the ED50 turned out to be 0.4 µg/mL (≈ 0.94 µM). In turn, `CO[C@H]1C(=O)N2C(C(=O)OC(C)(C)C)=C(C)CS(=O)(=O)C12` (stereo partly drawn) [R1=OCH3, M=CH3, B=OtBu, Q=H, t-Butyl 3-methyl-7α-methoxy-8-oxo-5-thia-1-azabicyclo [4.2.0]oct-2-ene-2-carboxylate-5,5-dioxide] yielded an ED50 of 1.0 µg/mL (≈ 3.15 µM).

Still in this test, the particulars now being: Table II; 50% inhibition of the enzyme activity 2 minutes after zero time; crude PMN extract, pH 7.5, 0.2 mM Boc-AAPAN; read-out: ED50 (the source's name) (converted).
For the molecule `COC1C(=O)N2C(C(=O)OC(C)(C)C)=C(COC(=O)c3ccccc3C(=O)O)CS(=O)(=O)C12` (stereo not drawn), the IC50 is 1250 nM. Still for that read-out and setting: as for `COC1C(=O)N2C(C(=O)OCC=C(C)C)=C(COC(C)=O)CS(=O)(=O)C12` (stereo not drawn), the figure is 2580 nM. The same measure, in the same setting: as for `COC1C(=O)N2C(C(=O)OC(C)(C)C)=C(COC(C)=O)C(CS(=O)(=O)c3ccccc3)S(=O)(=O)C12` (stereo not drawn), the figure is 37.8 nM; as for `COC(=O)c1cccc(COC(=O)C2=C(C)CS(=O)(=O)C3C(OC)C(=O)N23)c1` (stereo not drawn), 733 nM. Still for that read-out and setting: then `CCC1C(=O)N2C(C(=O)OC(C)(C)C)=C(COC(=O)CCC(=O)O)CS(=O)(=O)C12` (stereo not drawn) [R1=C2H5, M=CH2OCOCH2CH2COOH, B=OtBu, Q=H], with 1850 nM; and `CCC1C(=O)N2C(C(=O)OCc3ccccc3)=C(COC(C)=O)CS(=O)(=O)C12` (stereo not drawn) [R1=C2H5, M=CH2OCOCH3, B=OCH2.phi., Q=H], with 982 nM. `CCC1C(=O)N2C(C(=O)OC(C)(C)C)=C(COC(=O)NC(C)C(=O)O)CS(=O)(=O)C12` (stereo not drawn) [R1=C2H5, M=drawing 31, B=OtBu, Q=H]: the IC50 is 2240 nM.

`CCC1C(=O)N2C(C(=O)OC(C)(C)C)=C(COC(=O)C(N)c3ccccc3)CS(=O)(=O)C12` (stereo not drawn) [R1=C2H5, M=drawing 32, B=OtBu, Q=H]: the IC50 was 861 nM. On the same count and under the same terms, as for `CO[C@H]1C(=O)N2C(C(=O)OC(C)(C)C)=C(COC(=O)CCC(=O)O)CS(=O)(=O)C12` (stereo partly drawn) [R1=OCH3, M=CH2OCOCH2CH2COOH, B=OtBu, Q=H, t-Butyl 3-(3-[hydroxycarbonyl]Propanoyloxymethyl)-7α-methoxy-8-oxo-5-thia-1-azabicyclo[4.2.0]oct-2-ene-2-carboxylate-5,5-dioxide], the figure is 231 nM; as for `CNCC(=O)OCC1=C(C(=O)OC(C)(C)C)N2C(=O)C(OC)C2S(=O)(=O)C1` (stereo not drawn) [R1=OCH3, M=CH2OCOCH2NHCH3, B=OtBu, Q=H], 742 nM. As to `COC1C(=O)N2C(C(=O)N(C)C)=C(COC(C)=O)CS(=O)(=O)C12` (stereo not drawn) [R1=OCH3, M=CH2OCOCH3, B=N(CH3)2, Q=H], the IC50 is 1730 nM.

`CO[C@H]1C(=O)N2C(C(=O)NCC(=O)OC(C)(C)C)=C(COC(C)=O)CS(=O)(=O)[C@H]12` [R1=OCH3, M=CH2OCOCH3, B=NHCH2COOtBu, Q=H, N-(t-Butoxycarbonyl)methyl 3-acetyloxymethyl-7α-methoxy-8-oxo-5-thia-1-azabicyclo[4.2.0]oct-2-ene-2-carboxamide-5,5 dioxide]: the IC50 was 2080 nM. Same read-out and setting: as for `COC1C(=O)N2C(C(=O)OCC(=O)C(C)(C)C)=C(COC(C)=O)CS(=O)(=O)C12` (stereo not drawn) [R1=OCH3, M=CH2OCOCH3, B=OCH2COtBu, Q=H], the figure is 47.9 nM; as for `C=C1C(COC(C)=O)=C(C(=O)OC(C)(C)C)N2C(=O)[C@H](OC)[C@H]2S1(=O)=O` [R1=OCH3, M=CH2OCOCH3, B=OtBu, Q=CH2, t-Butyl 3-acetyloxymethyl-7α-methoxy-4-methylene-8-oxo-5-thia-1-azabicyclo [4.2.0]oct-2-ene-2-carboxylate-5,5-dioxide], 77.4 nM. On the same count and under the same terms, as for `COC1C(=O)N2C(C(=O)OC(C)(C)C)=C(COC(C)=O)C(Cc3ccccc3)S(=O)(=O)C12` (stereo not drawn) [R1=OCH3, M=CH2OCOCH3, B=OtBu, Q=CH2.phi.], the figure is 32200 nM; as for `CO[C@H]1C(=O)N2C(C(=O)OC(C)(C)C)=C(COC(C)=O)C(C)S(=O)(=O)[C@H]12` (stereo partly drawn) [R1=OCH3, M=CH2OCOCH3, B=OtBu, Q=CH3], 77 nM; as for `CO[C@H]1C(=O)N2C(C(=O)OC(C)(C)C)=C(COC(C)=O)CS(=O)(=O)[C@H]12` [R1=OCH3, M=CH2OCOCH3, B=OtBu, Q=H, t-Butyl-3-acetyloxymethyl-7α-methoxy-8-oxo-5-thia-1-azabicyclo[4.2.0]oct-2-ene-2-carboxylate-5,5-dioxide], 1330 nM. Regarding `COC1C(=O)N2C(C(=O)N3CCC[C@H]3C(=O)O)=C(COC(C)=O)CS(=O)(=O)C12` (stereo partly drawn) [R1=OCH3, M=CH2OCOCH3, B=drawing 33, Q=H], the IC50 is 12000 nM. On the same count and under the same terms, then `CO[C@H]1C(=O)N2C(C(=O)OC(C)(C)C)=C(COC(=O)NCC(=O)O)CS(=O)(=O)C12` (stereo partly drawn) [R1=OCH3, M=CH2OCONHCH2COOH, B=OtBu, Q=H, t-Butyl 3-hydroxycarbonylmethylaminocarbonyloxymethyl-7α-methoxy-8-oxo-5-thia-1-azabicyclo[4.2.0]oct-2-ene-2-carboxylate-5,5-dioxide], with 92.1 nM. On the same count and under the same terms, as for `CCOC(=O)OCC1=C(C(=O)OC(C)(C)C)N2C(=O)C(OC)C2S(=O)(=O)C1` (stereo not drawn) [R1=OCH3, M=CH2OCOOC2H5, B=OtBu, Q=H], the figure is 740 nM; as for `COC1C(=O)N2C(C(=O)OC(C)(C)C)=C(CO)CS(=O)(=O)C12` (stereo not drawn) [R1=OCH3, M=CH2OH, B=OtBu, Q=H], 2400 nM; as for `COC1C(=O)N2C(C(=O)OC(C)(C)C)=C(CS(C)(=O)=O)CS(=O)(=O)C12` (stereo not drawn) [R1=OCH3, M=CH2SO2CH3, B=OtBu, Q=H], 253 nM. Still for that read-out and setting: as for `CCOC(=O)COC(=O)C1=C(C)CS(=O)(=O)C2C(OC)C(=O)N12` (stereo not drawn) [R1=OCH3, M=CH3, B=OCH2COOC2H5, Q=H], the figure is 1440 nM.

The same test, now with this note: Table IIa; 50% inhibition of the enzyme activity 2 minutes after zero time; crude PMN extract, pH 7.5, 0.2 mM Boc-AAPAN; read-out: ED50 (the source's name) (converted).
`CC(=O)OCC1=C(C(=O)OC(C)(C)C)N2C(=O)C(Cl)(Cl)C2S(=O)(=O)C1` (stereo not drawn): the IC50 is 241 nM. The same measure, in the same setting: then `CC(=O)OCC1=C(C(=O)OC(C)(C)C)N2C(=O)C(F)(F)C2S(=O)(=O)C1` (stereo not drawn), with 131 nM.

Source of the values: patent US5364848A, “Substituted cephalosporin sulfones as anti-inflammatory and antidegenerative agents” (Merck & Co., Inc., priority 1992, dated 1994).
